Ends that are not written are not given here.
What was measured:
[1] = system: NFκB target genes; assay: Expression of NFκB target genes in PC-3 cells (RNA-seq, RT-qPCR); format: cell-based, human; conditions: PC-3 cells expressing peptide, TNFα 20 ng/mL, 24 hours
Description: FIGS. 4A-G. RB globally regulates NFkB transcriptional program in cells. […] (F, G) PC-3 cell were treated with or without palbociclib (5 μM) for 24 hours or PC-3 cells were infected with lentivirus expressing control shRNA or RB-specific shRNA following puromycin selection after 48 hours infection. Cells were harvested for RT-qPCR (F) and ChIP-qPCR (G) analysis of p65 binding at the promotor of PD-L1, GADD45B, NR4A2, and CD83. All data were shown as mean values±SD (n=3). * P<0.05, ** P<0.01, ***P<0.001.
FIGS. 16A-K. Mutual exclusivity of PTEN and MAP3K7 gene deletion in human cancers and CDK4/6 inhibition-mediated blockage of MAP3K7 deficiency-induced death of PTEN-null cells. (A) Genetic alterations of MAP3K7 and PTEN genes in the TCGA prostate cancer dataset. (B) Genetic alterations of MAP3K7 and PTEN genes in lymphoid neoplasm diffuse large B-cell lymphoma, stomach adenocarcinoma, pancreatic cancer, liver cancer, bladder urothelial carcinoma, and lung adenocarcinoma. (C-E) PC-3 cells were infected with lentivirus expressing control or MAP3K7-specific shRNAs. 72 hours after infection, cells were harvested for western blotting (C), cell growth assay (D), and colony formation assay (E). All data were shown as mean values±SD (n=3). ns, not significant, * P<0.05 comparing to the shControl group. (F-H) LNCaP-RF prostate cancer cells were infected with lentivirus expressing control or MAP3K7-specific shRNAs. 72 hours after infection, cells were harvested for western blotting (F), cell growth assay (G), and colony formation assay (H). All data are shown as mean values±SD (n=3). ns, not significant, * P<0.05 comparing to the shControl group. (I-K) PC-3 cells were infected with lentivirus expressing control, MAP3K7 or CHD1-specific shRNAs. 72 hours after infection, cells were treated with DMSO or palbociclib (5 μM). […]
FIGS. 17A-I. Negative regulation of MAP3K7-IKK-NFκB and CHD1-NFκB signaling by RB. […] 72 hours after infection and puromycin selection, cells were injected s.c. into the right flank of NSG mice, and tumor growth was measured for 21 days. […]

[2] = system: PD-L1; assay: PD-L1 expression in cell lines of other cancer types (PANC-1, H1299, SK-Hep1) expressing RL peptide; format: cell-based, human; conditions: listed as RL-S249/T252D peptide
Description: FIGS. 12A-C. (A, B) PANC-1, H1299, and SK-Hep1 were infected with lentivirus expressing control or RB-specific shRNAs following puromycin selection. 48 hours post infection, cells were transfected with indicated construct. 24 hours after transfection, cells were harvested for western blotting (A) and RT-qPCR (B). All data were shown as mean values±SD (n=3). “ns”=not significant, *** P<0.001. (C) Western blot analysis of expression of PD-L1, RB, pRB-S249/T252, pRB-5795, and ERK2 in prostate cancer cell lines indicated.
Total RNA was isolated using TRIzol reagent (Thermo Fisher Scientific). The NanoDrop 2000 spectrophotometer (Thermo Fisher Scientific) was used to assess RNA yield and quality. RNA was reversely transcribed using Superscript reverse transcriptase (Thermo Fisher Scientific) following manufacturer's instructions. Quantitative real-time PCR was performed by mixing cDNA, gene-specific primers, and IQ SYRB Green Supermix and detected by iCycler QTX detection system (Bio-Rad). The 2-ΔCt method was used to quantitate fold changes by normalizing to GAPDH. Primers for RT-qPCR are provided Table 4.
Cells were harvested and lysed by IP buffer, and the supernatant was quantified by BCA protein quantification assay. Equal amounts of protein sample were added into 4× sample buffer and boiled for 5 minutes. […]

RL-S249D/T252D: S249/T252 phospho-mimicking R-Linker (RL) peptide: fragment of RB-N containing 21 amino acids surrounding S249/T252, expressed SFB-tagged or by lentivirus (NGDPRDPRRGQNRSARIAKQL; also: expressed SFB-tagged (tag left off))
TNFα-induced expression of NFκB target genes [1]: blocked | PD-L1 expression in cell lines of other cancer types [2]: inhibited

— patent US20210401931A1, “METHODS AND MATERIALS FOR TREATING CANCER” (Mayo Foundation for Medical Education and Research, priority 2018, published 2021)
